Laboratory results from patent US10035790B2, “RORγ modulators” (BRISTOL-MYERS SQUIBB COMPANY, priority 2012, dated 2018).

The compounds below were run against T1, ligand binding domain of human RORγ (A262-S507) (Homo sapiens, UniProt P51449) (assay: General RORγ SPA binding assay (competition with [3H]25-hydroxycholesterol)). Details: IC50, RORγ SPA binding assay, inhibition of [3H]25-hydroxycholesterol binding.
T1 construct: made in house; host or cells: E. coli
T1 sequence (P51449 262-507): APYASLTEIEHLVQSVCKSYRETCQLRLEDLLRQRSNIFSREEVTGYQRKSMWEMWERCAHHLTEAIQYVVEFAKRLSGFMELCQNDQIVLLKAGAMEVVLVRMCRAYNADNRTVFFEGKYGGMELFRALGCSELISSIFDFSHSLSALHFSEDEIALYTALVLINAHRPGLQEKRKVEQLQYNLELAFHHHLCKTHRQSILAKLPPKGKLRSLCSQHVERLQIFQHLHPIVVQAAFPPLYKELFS
Outline: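 Scintillation counts from copper His-tag SPA beads (4 mg/mL, 30 min) gave percent inhibition of radioligand binding, from which IC50 values are derived. The E. coli-expressed His-tagged domain (50 nM) is first exposed to compound for 15 min at room temperature in PBS containing 0.5% fatty acid free BSA.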
For Cc1nc(C)c(C(=O)NCc2ccnc(C(F)(F)F)n2)c(C2CCN(C(=O)Oc3c(F)cccc3F)CC2)n1 [Compound A123, 2,6-Difluorophenyl 4-{2,6-dimethyl-5-[({[2-(trifluoromethyl)pyrimidin-4-yl]methyl}amino)carbonyl]pyrimidin-4-yl}piperidine-1-carboxylate], the IC50 was 5.4 nM.

Same assay, conditions: RORγ SPA binding assay, inhibition of [3H]25-hydroxycholesterol binding; read-out: IC50
For Cc1cc(C)cc(CN(C)C(=O)c2cnc(C)nc2C2CCN(C(=O)Cc3c(F)cccc3F)CC2)c1 [Compound A113, 4-(1-(2-(2,6-Difluorophenyl)acetyl)piperidin-4-yl)-N-(3,5-dimethylbenzyl)-N,2-dimethylpyrimidine-5-carboxamide], the IC50 was 338 nM. Cc1nc(C)c(-c2nnc(-c3ccnc(C(F)(F)F)n3)o2)c(C2CCN(C(=O)C(F)(F)c3ccccc3F)CC2)n1 [Compound C44, 4-{1-[Difluoro(2-fluorophenyl)acetyl]piperidin-4-yl}-2,6-dimethyl-5-{5-[2-(trifluoromethyl)pyrimidin-4-yl]-1,3,4-oxadiazol-2-yl}pyrimidine] was tested, and the IC50 was 3.2 nM. In the case of Cc1ncc(/C=N/Oc2cccc(C(F)(F)F)c2)c(C2CCN(C(=O)Cc3c(F)cccc3F)CC2)n1 [Compound B30, (E)-4-(1-(2-(2,6-Difluorophenyl)acetyl)piperidin-4-yl)-2-methylpyrimidine-5-carbaldehyde O-3-(trifluoromethyl)phenyl oxime], the IC50 is reported as 9.7 nM. Cc1nc(C)c(-c2nnc(-c3ccnc(C(F)(F)F)n3)o2)c(C2CCN(C(=O)Cc3ncccc3Cl)CC2)n1 [Compound C42, 4-{1-[(3-Chloropyridin-2-yl)acetyl]piperidin-4-yl}-2,6-dimethyl-5-{5-[2-(trifluoromethyl)pyrimidin-4-yl]-1,3,4-oxadiazol-2-yl}pyrimidine] showed an IC50 of 240 nM. In the case of Cc1ncc(C(=O)NCc2cc(C)n(C)n2)c(C2CCN(C(=O)Cc3c(F)cccc3F)CC2)n1 [Compound A78, 4-(1-(2-(2,6-difluorophenyl)acetyl)piperidin-4-yl)-N-((1,5-dimethyl-1H-pyrazol-3-yl)methyl)-2-methylpyrimidine-5-carboxamide], the IC50 is reported as 1790 nM. In the case of Cc1ncc(C(C)(C)OCc2cccc(Cl)c2)c(C2CCN(C(=O)Cc3c(F)cccc3F)CC2)n1 [Compound E6, 1-(4-(5-(2-((3-chlorobenzyl)oxy)propan-2-yl)-2-methylpyrimidin-4-yl)piperidin-1-yl)-2-(2,6-difluorophenyl)ethanone], the IC50 is reported as 45.7 nM. Cc1nc(C)c(-c2nnc(-c3ccnc(C(F)(F)F)n3)o2)c(C2CCN(C(=O)N(C)c3c(F)cccc3F)CC2)n1 [Compound C36, N-(2,6-Difluorophenyl)-4-(2,6-dimethyl-5-(5-(2-(trifluoromethyl)pyrimidin-4-yl)-1,3,4-oxadiazol-2-yl)pyrimidin-4-yl)-N-methylpiperidine-1-carboxamide] was tested, and the IC50 was 155 nM. Work on Cc1nc(C)c(-c2nnc(-c3ccnc(C(F)(F)F)n3)o2)c(C2CCN(C(=O)[C@H](C)c3c(F)cccc3F)CC2)n1 [Compound C35, (R)-2-(2,6-Difluorophenyl)-1-(4-(2,6-dimethyl-5-(5-(2-(trifluoromethyl)pyrimidin-4-yl)-1,3,4-oxadiazol-2-yl)pyrimidin-4-yl)piperidin-1-yl)propan-1-one] yielded an IC50 of 608 nM. In the case of Cc1ncc(C(=O)NCc2cccc(C#N)c2)c(C2CCN(C(=O)Cc3c(F)cccc3F)CC2)n1 [Compound A50, N-(3-cyanobenzyl)-4-(1-(2-(2,6-difluorophenyl)acetyl)piperidin-4-yl)-2-methylpyrimidine-5-carboxamide], the IC50 is reported as 7.1 nM. Cc1ncc(C(=O)NCc2cccc(Cl)c2)c(C2(F)CCN(C(=O)Cc3c(F)cccc3F)CC2)n1 [Compound A103, N-(3-Chlorobenzyl)-4-(1-(2-(2,6-difluorophenyl)acetyl)-4-fluoropiperidin-4-yl)-2-methylpyrimidine-5-carboxamide] was tested, and the IC50 was 3.4 nM. Work on COc1ncc(C(C)(O)COc2ccnc(C(F)(F)F)n2)c(C2CCN(C(=O)Nc3c(F)cccc3F)CC2)n1 (stereo not drawn) [Compound D44, N-(2,6-Difluorophenyl)-4-[5-(1-hydroxy-1-methyl-2-{[2-(trifluoromethyl)pyrimidin-4-yl]oxy}ethyl)-2-(methyloxy)pyrimidin-4-yl]piperidine-1-carboxamide] yielded an IC50 of 4.6 nM. Compound Cc1cc(C)cc(OCC(C)(F)c2cnc(C)nc2C2CCN(C(=O)Cc3c(F)cccc3F)CC2)c1 (stereo not drawn) [Compound E14, 4-{1-[(2,6-Difluorophenyl)acetyl]piperidin-4-yl}-5-{2-[(3,5-dimethylphenyl)oxy]-1-fluoro-1-methylethyl}-2-methylpyrimidine] has an IC50 of 28 nM. C/C(=N\Oc1ccnc(Cl)c1)c1cnc(C)nc1C1CCN(C(=O)Cc2c(F)cccc2F)CC1 [Compound B15, (E)-1-(4-(5-(1-(((2-chloropyridin-4-yl)oxy)imino)ethyl)-2-methylpyrimidin-4-yl)piperidin-1-yl)-2-(2,6-difluorophenyl)ethanone] was tested, and the IC50 was 5.1 nM. With Cc1ncc(C(C)(F)COc2cccc(C(F)(F)F)n2)c(C2CCN(C(=O)Nc3c(F)cccc3F)CC2)n1 (stereo not drawn) [Compound E12, N-(2,6-Difluorophenyl)-4-[5-(1-fluoro-1-methyl-2-{[6-(trifluoromethyl)pyridin-2-yl]oxy}ethyl)-2-methylpyrimidin-4-yl]piperidine-1-carboxamide] the IC50 was 11 nM. In the case of Nc1ncc(C(F)(F)COc2ccnc(C(F)(F)F)n2)c(C2CCN(C(=O)Nc3c(F)cccc3F)CC2)n1 [Compound N17, 4-[2-Amino-5-(1,1-difluoro-2-{[2-(trifluoromethyl)pyrimidin-4-yl]oxy}ethyl)pyrimidin-4-yl]-N-(2,6-difluorophenyl)piperidine-1-carboxamide], the IC50 is reported as 6.2 nM. Compound Cc1ncc(C(C)(O)CNc2ccnc(C(F)(F)F)n2)c(C2CCN(C(=O)Nc3c(F)cccc3F)CC2)n1 (stereo not drawn) [Compound D17, N-(2,6-Difluorophenyl)-4-[5-(1-hydroxy-1-methyl-2-{[2-(trifluoromethyl)pyrimidin-4-yl]amino}ethyl)-2-methylpyrimidin-4-yl]piperidine-1-carboxamide] has an IC50 of 88.8 nM. With Cc1ncc(/C=N/Oc2cccc(C(F)(F)F)c2)c(C2CCN(C(=O)Cc3c(F)cccc3F)CC2(F)F)n1 (stereo not drawn) [Compound B33, (E)-4-(1-(2-(2,6-Difluorophenyl)acetyl)-3,3-difluoropiperidin-4-yl)-2-methylpyrimidine-5-carbaldehyde O-3-(trifluoromethyl)phenyl oxime] the IC50 was 36.7 nM. With CC(O)(COc1ccnc(C(F)(F)F)n1)c1cnc(N)nc1C1CCN(C(=O)Nc2c(F)cccc2F)CC1 (stereo not drawn) [Compound D29, 4-[2-Amino-5-(1-hydroxy-1-methyl-2-{[2-(trifluoromethyl)pyrimidin-4-yl]oxy}ethyl)pyrimidin-4-yl]-N-(2,6-difluorophenyl)piperidine-1-carboxamide] the IC50 was 14.4 nM. With C/C(=N\Oc1cccc(C(F)(F)F)n1)c1cnc(C)nc1C1CCN(C(=O)Cc2c(F)cccc2F)CC1 [Compound B19, (E)-2-(2,6-difluorophenyl)-1-(4-(2-methyl-5-(1-(((6-(trifluoromethyl)pyridin-2-yl)oxy)imino)ethyl)pyrimidin-4-yl)piperidin-1-yl)ethanone] the IC50 was 13.9 nM. Work on O=C(NCc1cccc(Cl)c1)c1cnc(O)nc1C1CCN(C(=O)Cc2c(F)cccc2F)CC1 [Compound A98, N-(3-chlorobenzyl)-4-(1-(2-(2,6-difluorophenyl)acetyl)piperidin-4-yl)-2-hydroxypyrimidine-5-carboxamide] yielded an IC50 of 398 nM. O=C(NCc1ccc(Cl)c(Cl)c1)c1cnc(C(F)(F)F)nc1C1CCN(C(=O)Cc2c(F)cccc2F)CC1 [Compound A21, N-(3,4-dichlorobenzyl)-4-(1-(2-(2,6-difluorophenyl)acetyl)piperidin-4-yl)-2-(trifluoromethyl)pyrimidine-5-carboxamide] was tested, and the IC50 was 209 nM. Cc1cc(C)cc(COC(C)(C)c2cnc(C)nc2C2CCN(C(=O)Cc3c(F)cccc3F)CC2)c1 [Compound E5, 2-(2,6-Difluorophenyl)-1-(4-(5-(2-(3,5-dimethylbenzyloxy)propan-2-yl)-2-methylpyrimidin-4-yl)piperidin-1-yl)ethanone] was tested, and the IC50 was 10.6 nM. Cc1cc(C)cc(CNC(=O)c2cnc(C)nc2C2CCN(C(=O)Cc3ccccc3C(F)(F)F)CC2)c1 [Compound A5, N-(3,5-dimethylbenzyl)-2-methyl-4-(1-(2-(2-(trifluoromethyl)phenyl)acetyl)piperidin-4-yl)pyrimidine-5-carboxamide] showed an IC50 of 8.9 nM. CC(O)(COc1ccnc(C(F)(F)F)n1)c1cnc(N)nc1C1CCN(C(=O)Cc2c(F)cccc2F)CC1 (stereo not drawn) [Compound D30, 2-(2-Amino-4-{1-[(2,6-difluorophenyl)acetyl]piperidin-4-yl}pyrimidin-5-yl)-1-{[2-(trifluoromethyl)pyrimidin-4-yl]oxy}propan-2-ol] was tested, and the IC50 was 4.3 nM. For Cc1nc(C)c(-c2nnc(-c3ccc(Cl)cn3)o2)c(C2CCN(C(=O)Cc3c(F)cccc3F)CC2)n1 [Compound C20, 1-(4-(5-(5-(5-chloropyridin-2-yl)-1,3,4-oxadiazol-2-yl)-2,6-dimethylpyrimidin-4-yl)piperidin-1-yl)-2-(2,6-difluorophenyl)ethanone], the IC50 was 657 nM. For Cc1nc(C)c(C(=O)NCc2ccnc(C#N)c2)c(C2CCN(C(=O)Cc3c(F)cccc3F)CC2)n1 [Compound A83, N-((2-cyanopyridin-4-yl)methyl)-4-(1-(2-(2,6-difluorophenyl)acetyl)piperidin-4-yl)-2,6-dimethylpyrimidine-5-carboxamide], the IC50 was 45.8 nM.
